The values below come from patent US5036081A, “Calcium absorption promoter” (Takeda Chemical Industries, Ltd., priority 1988, dated 1991).

SMILES strings stand for the structures.

Data set [1] deals with bone resorption (antebrachial bones, radius and ulna, of a fetus). Description: tissue or blood. The data set is classed as cell-based, Sprague-Dawley rat. Particulars: for ^45 Ca released into medium: 2 days, mean ± S.D. (n = 5). The procedure: Effect of N-(1,3-dihydroxy-2-propyl)valiolamine and 1,25(OH)2 vitamin D3 on bone resorption
The bone resorption rate was determined by the method of Raisz (J. Clin. Invest. 44, 103-116, 1965). Thus, one Sprague-Dawley rat on day 18 of gestation was subcutaneously dosed with 50 μCi of ^45 Ca (an isotope of calcium, in CaCl2) and laparotomy was performed on the next day. The fetuses were aseptically taken out and under a dissecting microscope, the bilateral antebrachial bones (radius and ulna) of a fetus were cut off from the trunk. The connective tissues and cartilages were removed as much as possible to prepare a sample for bone culture. Each piece of bone was cultured in 0.6 ml of BGJb medium (Fitton-Jackson modification, GIBCO Laboratories, U.S.A., supplemented with 2 mg/ml of bovine serum albumin) at 37° C. for 24 hours and after addition of AO-128 at a final concentration of 10 μg/ml or 1,25(OH)2 vitamin D3 at a concentration of 0.8 pg/ml, was further incubated in the same medium for 2 days. The ^45 Ca radioactivity in the medium and that in the bone were respectively counted and the rate (%) of ^45 Ca release from the bone into the medium was calculated by means of the following equation. [formula]
The bones from another fetus of the same litter were incubated without addition of the test compounds for 2 days as controls. The means±S.D. of values found from 5 pieces of bone in each group was calculated and the percentage (%) of the mean value relative to the mean value of the control group was calculated.

The nature of data set [2]: Acute oral toxicity in mice. Particulars: mouse, in vivo, mice (NRMI).
Data set [3] is described as follows: Acute oral toxicity in rats. Particulars: rat, in vivo, rats (Wistar).
A short description of data set [4]: Exogenous calcium absorption promoting effect in rats (oral sucrose + calcium carbonate load, 24 hr urinary calcium). The format is in vivo, male rats (Jcl: SD). The note with it: for Urinary calcium: sucrose 2.5 g/kg, calcium carbonate 400 mg/kg, 24 hr urine, mean ± S.D. The procedure: Exogenous calcium absorption promoting effect of N-(1,3-dihydroxy-2-propyl)valiolamine in rats
Eight-week-old male rats (Jcl: SD) fasted for 20 hours were orally dosed with 72.5% sucrose aqueous solution [2.5 g (sucrose)/kg (body weight)], 5% calcium carbonate aqueous suspension [400 mg (CaCO3)/kg (body weight)] and 0.015, 0.05 or 0.15% aqueous AO-128 solution [0.3, 1.0 or 3.0 mg ((AO-128)/kg (body weight)] and the 24 hr urine was collected for the determination of urinary calcium. The animals were deprived of food during urine collection but had free access to water. The results are shown in Table 2.

Data set [5] can be described thus: Dietary calcium absorption promoting effect in rats (medicated diet; body weight, food consumption, urinary and plasma calcium). The data set is classed as in vivo, male rats (Jcl: SD). The note with it: for Body weight / Plasma calcium / Food consumption / Urinary calcium: mean ± S.D., n=6; for Urinary calcium: ** = 1% level of significance vs control. The text has this: Dietary calcium absorption promoting effect of N-(1,3-dihydroxy-2-propyl)valiolamine in rats
Five-week-old male rats (Jcl: SD) were divided into 2 groups and one group (control group) was given a regular diet (CE-2. Japan Clea Co.) while the other group was put on a medicated diet, i.e. CE-2 supplemented with N-(1,3-dihydroxy-2-propyl)valiolamine (AO-128). The level of addition of AO-128 was 10 ppm during the first 10 days and 25 ppm during the subsequent 7 days. On days 3, 10 and 17 of feeding, the body weight, food consumption, urinary calcium excretion, and plasma calcium concentration were determined.

Where [6] appears, read: Day 17, 10 ppm first 10 days then 25 ppm 7 days in diet.

As to `C=C1/C(=C\C=C2/CCC[C@]3(C)[C@@H]([C@H](C)CCCC(C)(C)O)CC[C@@H]23)C[C@@H](O)C[C@@H]1O` [1,25(OH)2 vitamin D3, reference compound], the “^45 Ca released into medium” value in data set [1] (0.8 pg/ml, control 12.3 ± 2.2, *p < 0.001) was 26.6 ± 2.2%. The fold induction at 800 fg/mL in data set [1] (Rattus norvegicus, 48 h, read-out: increase in the release of ^45 Ca into the medium) was determined as 2.2.
For orientation: LD50 means the dose expected to kill half of the subjects tested. Low values mean a more toxic substance, high ones a less toxic substance. Turning to `OCC(CO)N[C@H]1C[C@](O)(CO)[C@@H](O)[C@H](O)[C@H]1O` [AO-128, N-(1,3-dihydroxy-2-propyl)valiolamine], the values for the LD50 in data set [2] and in data set [3] were 14700 to 21500 mg/kg and roughly 20000 mg/kg, respectively. Further, the “effect on bone resorption (in words)” value in data set [1] (10 μg/ml) is reported as “no change”. For the same compound, the “^45 Ca released into medium” value in data set [1] (10 μg/ml, control 12.7 ± 3.2) turned out to be 12.6 ± 2.5%. For the same compound, the Urinary calcium in data set [4] (AO-128 0.3 mg/kg oral, n=7) amounted to 311 ± 214 µg/day; in data set [4] (AO-128 1.0 mg/kg oral, n=6, * = 2% level of significance vs control), 441 ± 172 µg/day; in data set [4] (AO-128 3.0 mg/kg oral, n=6, ** = 1% level of significance vs control), 517 ± 195 µg/day; in data set [5] (Day 3, 10 ppm in diet), 1.99 ± 0.67 mg/day; in data set [5] (Day 10, 10 ppm in diet), 2.10 ± 0.54 mg/day. In addition, the “absorption of calcium (in words)” value in data set [4] (administered concurrently with a carbohydrate and calcium, based on the two experiments) is “increases the absorption of calcium”. Also, the “urinary calcium (in words)” value in data set [4] (concurrent with calcium carbonate and sucrose) is reported as “dose-dependent increase”. Further, the “body weight gain (in words)” value in data set [5] (AO-128 group, diet 10 then 25 ppm) was “a tendency of suppressed body weight gain”. Further, the Body weight in data set [5] (Day 3, 10 ppm in diet) is 143 ± 7 g; in data set [5] (Day 10, 10 ppm in diet) it was 176 ± 8 g; in data set [5] (setting [6]), 250 ± 14 g. Further, the Plasma calcium in data set [5] (Day 3, 10 ppm in diet) came out at 10.8 ± 0.5 mg/dL; in data set [5] (Day 10, 10 ppm in diet), 10.3 ± 0.5 mg/dL; in data set [5] (setting [6]), 9.9 ± 0.3 mg/dL. Further, the Food consumption in data set [5] (Day 3, 10 ppm in diet, * = 5% level of significance vs control) was determined as 12.7 ± 1.7 g/day; in data set [5] (Day 10, 10 ppm in diet), 22.7 ± 2.3 g/day; in data set [5] (setting [6]) it was 24.5 ± 2.0 g/day. For the same compound, the “urinary calcium excretion (in words)” value in data set [5] (all determination days) is listed as “increases”. Moreover, the “food consumption (in words)” value in data set [5] (day 3) is “slight decrease on day 3”; in data set [5] (day 10), “recovery on day 10”; in data set [5] (day 17) it was “a tendency of increase in day 17”. The “plasma calcium concentration (in words)” value in data set [5] (days 3, 10 and 17) is “no significant change”.
